Measured values taken from paper PMC12040169 (PLOS Biology, 2025).

Assay: in vitro
Conditions: human, hela cells, % viability

CC(=O)Nc1ccc(NC(=O)Cc2n[nH]c(=S)n2Cc2ccccc2)cc1 [CBK296754]
viability at 28.5 h, 10 µM: 91.1%

O=C(Oc1ccccc1O)c1cccc(Cl)c1 [CBK090130]
viability at 28.5 h, 10 µM: 97.1%

Cc1nc(C2CCCN(C(=O)CCc3ccno3)C2)c2sccn12 (stereo not shown) [CBK285237]
viability at 28.5 h, 10 µM: 87.5%

CCOc1ccc(OCC)c(S(=O)(=O)n2nc(C)cc2C)c1 [CBK264024]
viability at 28.5 h, 10 µM: 94.6%

CC1(C(=O)NS(=O)(=O)c2cccc(-c3nnco3)c2)CC1 [CBK304683]
viability at 28.5 h, 10 µM: 106%

C=CCOC(=O)N1CCC(C(=O)N(C)C(c2cccc(OC)c2)c2ccccn2)CC1 (stereo not shown) [CBK060244]
viability at 28.5 h, 10 µM: 91.5%

CC(=O)Oc1ccc2c(=O)c(C3NC(C(=O)O)Cc4c3[nH]c3ccccc43)coc2c1 (stereo not shown) [CBK293948]
viability at 28.5 h, 10 µM: 120%

CC(=O)N1CCc2ccc(S(=O)(=O)n3ccc4c(N5CCNCC5)cccc43)cc2C1 [CBK001632C]
viability at 28.5 h, 10 µM: 101%

CN(C)CCNc1ncnc2sc3c(c12)CCC3 [CBK265347]
viability at 28.5 h, 10 µM: 69.5%

COc1ccc(C2C=C(C)Nc3nc(N)nn32)cc1 (stereo not shown) [CBK287906]
viability at 28.5 h, 10 µM: 91.8%

CCn1c(C)nc2cc(Cl)c(Cl)cc21 [CBK115577]
viability at 28.5 h, 10 µM: 89.3%

CCNS(=O)(=O)c1ccc2c(c1)N(Cc1csnn1)CC2 [CBK306161]
viability at 28.5 h, 10 µM: 74.3%

COc1ccccc1-c1cc2nc(C)cc(Nc3ccccc3)n2n1 [CBK287806]
viability at 28.5 h, 10 µM: 97.3%

CC(C)CC(NC(=O)c1ccccc1)C(=O)OCC(=O)Nc1nc2ccccc2s1 (stereo not shown) [CBK085134]
viability at 28.5 h, 10 µM: 92.5%

Cc1ccc(C(=O)C(OC(=O)c2ccc(-c3nnc(-c4ccccc4)o3)cc2)c2ccccc2)cc1 (stereo not shown) [CBK265177]
viability at 28.5 h, 10 µM: 82.7%

Cc1cc(OCC(=O)Nc2ccc(S(=O)(=O)N3CCOCC3)cc2)ccc1[N+](=O)[O-] [CBK268114]
viability at 28.5 h, 10 µM: 113%

Cn1c(SCC(=O)Nc2ccc(F)cc2)nnc1-c1cccnc1 [CBK267035]
viability at 28.5 h, 10 µM: 94.7%

COC(=O)c1ccccc1NC(=O)C1CCCN(S(=O)(=O)c2cc(Cl)ccc2Cl)C1 (stereo not shown) [CBK268797]
viability at 28.5 h, 10 µM: 101%

O=C(Cc1ccccn1)NC(Cc1ccsc1)c1nccs1 (stereo not shown) [CBK282821]
viability at 28.5 h, 10 µM: 85.7%

Cc1ccc(S(=O)(=O)NC(C)(C)CSc2nncn2N)cc1 [CBK266297]
viability at 28.5 h, 10 µM: 103%

NC(=O)C1CCN(C(=O)Cc2csc(COc3ccc(Cl)cc3)n2)CC1 [CBK304519]
viability at 28.5 h, 10 µM: 81.9%

O=C(Nc1ccccc1C(=O)O)c1ccccc1Cl [CBK287114]
viability at 28.5 h, 10 µM: 88%

CN1CCN(c2cc(-c3cccc4cccnc34)nc3ccnn23)CC1 [CBK037013]
viability at 28.5 h, 10 µM: 90.8%

O=C(Nc1ccc([C@@H](O)[C@H]2COCC(=O)N2Cc2ccc(F)cc2)cc1)c1ccccc1 [CBK289061]
viability at 28.5 h, 10 µM: 86.1%

Cc1cc(N2CCN(C(=O)c3c[nH]c(=O)[nH]3)CC2)nc(C(C)C)n1 [CBK296681]
viability at 28.5 h, 10 µM: 111%

CCN1CCN(C(=O)c2cccn2C)CC1 [CBK200248]
viability at 28.5 h, 10 µM: 84.7%

CCCNC(=O)Cn1nc(-c2cc3c(s2)CCC3)oc1=O [CBK284713]
viability at 28.5 h, 10 µM: 95.2%

O=C(NC(Cc1ccccc1)N1C(=O)c2ccccc2C1=O)N1CCCc2ccccc21 (stereo not shown) [CBK265551]
viability at 28.5 h, 10 µM: 111%

NS(=O)(=O)c1cc(C(=O)O)ccc1Cl [CBK113676]
viability at 28.5 h, 10 µM: 108%

C#CCNC(=O)[C@@H]1Cc2cn(Cc3cc(C)on3)c3cccc(c23)[C@H](CC(C)C)N1 [CBK289426]
viability at 28.5 h, 10 µM: 90.4%

CN(Cc1ccc(F)cc1F)C(=O)Cn1nc2n(c1=O)CCCCC2 [CBK304598]
viability at 28.5 h, 10 µM: 86.3%

COc1cc(F)cc(OC2CCNCC2)c1NC(=O)c1cnccn1 [CBK050296T]
viability at 28.5 h, 10 µM: 90.3%

Cc1ccc2c(c1)C(C)(c1ccccc1)CC(C)(C)N2C(=O)CSc1nncn1C (stereo not shown) [CBK022397]
viability at 28.5 h, 10 µM: 98.8%

Nc1nc2c(s1)c(=O)[nH]c(=O)n2-c1ccc(Cl)cc1 [CBK269891]
viability at 28.5 h, 10 µM: 78.1%

CC(C)(C)c1csc(NC(=O)C2CC(=O)N(c3cccc(C(F)(F)F)c3)C2)n1 (stereo not shown) [CBK175545]
viability at 28.5 h, 10 µM: 106%

COc1ccc(N2CCN(/C(=N/S(=O)(=O)c3ccccc3)Nc3nc(C)cc(C)n3)CC2)cc1 [CBK266750]
viability at 28.5 h, 10 µM: 88.7%

CCc1nccn1CCC(=O)Nc1ccc2c(c1)CCN2C(C)=O [CBK281446]
viability at 28.5 h, 10 µM: 90.9%

CC(=O)N1CCC(Cn2nc(-c3ccc(F)cc3)ccc2=O)CC1 [CBK282406]
viability at 28.5 h, 10 µM: 101%

CCN(CC)CCNC(=O)C1CCCCN1S(=O)(=O)c1ccc(C)cc1 (stereo not shown) [CBK101088]
viability at 28.5 h, 10 µM: 89.9%

COc1cc(CNCc2cccnc2)ccc1OCc1cccs1 [CBK270082C]
viability at 28.5 h, 10 µM: 86.7%

CSc1cccc(CN(C)C(=O)c2cc(C#N)c(=O)[nH]c2C)c1 [CBK306839]
viability at 28.5 h, 10 µM: 93%

COc1ccc(OCCCOc2ccccc2C(C)C)cc1 [CBK026366]
viability at 28.5 h, 10 µM: 90.8%

Cc1c(C(=O)Nc2nc(-c3ccc(S(=O)(=O)N4CCOCC4)cc3)cs2)oc2ccc(Cl)cc12 [CBK267663]
viability at 28.5 h, 10 µM: 93.7%

Nc1ncc(-c2cccc3cccnc23)nc1NCc1ccncc1 [CBK063622]
viability at 28.5 h, 10 µM: 87.4%

COc1ccnc(N2CCN(C(=O)C3(C#N)CCCCC3)CC2)n1 [CBK305739]
viability at 28.5 h, 10 µM: 92.2%

O=C(Nc1ccc(I)cc1C(=O)N1CCCCC1CCO)c1cccc2ccccc12 (stereo not shown) [CBK266212]
viability at 28.5 h, 10 µM: 113%

Cc1cc2cc(C(=O)NCCCN3Cc4ccccc4C3)ccc2o1 [CBK282624]
viability at 28.5 h, 10 µM: 97.4%

O=C(NC1CC1)[C@H]1C=CCN1C(=O)c1cccs1 [CBK284324]
viability at 28.5 h, 10 µM: 94.7%

NC(=O)c1ccc(-c2cnc3[nH]c(=O)n(CCCN4CCOCC4)c3n2)cc1 [CBK065092]
viability at 28.5 h, 10 µM: 102%

COc1ccc(S(=O)(=O)N2CCN(C(=O)c3cc(-c4ccncc4)nc4c(C)c(Cl)ccc34)CC2)cc1 [CBK267739]
viability at 28.5 h, 10 µM: 92.6%

OCCCNC(=S)Nc1ccc(Cl)cc1Cl [CBK265264]
viability at 28.5 h, 10 µM: 96.6%

O=C(N1CCC=C(F)C1)C12CCOCC1CN(c1ncccn1)C2 (stereo not shown) [CBK304264]
viability at 28.5 h, 10 µM: 91.3%

C=CCN(CC=C)CCOc1c(C)cc(C)cc1Br [CBK266070G]
viability at 28.5 h, 10 µM: 110%

CN1CCN(S(=O)(=O)c2ccc3oc(=O)ccc3c2)CC1 [CBK062431]
viability at 28.5 h, 10 µM: 118%

CN(CC#CCN1CCCC1)C(=O)CNC(=O)OC(C)(C)C [CBK007489]
viability at 28.5 h, 10 µM: 111%

COc1cccc(/C=C2\SC(=S)N(CC(=O)NNC(=O)c3ccccc3O)C2=O)c1 [CBK262202]
viability at 28.5 h, 10 µM: 91.1%

OC(CN1CCC(O)(c2cccc(C(F)(F)F)c2)CC1)c1ccccc1 (stereo not shown) [CBK286324]
viability at 28.5 h, 10 µM: 109%

c1cn2cnnc2c(N2CCc3sccc3C2)n1 [CBK305180]
viability at 28.5 h, 10 µM: 96.6%

CCN(Cc1cccc(C(=O)O)c1)Cc1noc(C2CCC2)n1 [CBK307708]
viability at 28.5 h, 10 µM: 102%

Cc1ccc(C(=O)Nc2nnn(C)n2)c(Cl)c1 [CBK287856]
viability at 28.5 h, 10 µM: 97.4%

COCC(=O)N1CCc2sccc2C1c1ccc(NCc2ccc(F)cc2F)cc1 (stereo not shown) [CBK286460]
viability at 28.5 h, 10 µM: 100%

O=S1(=O)CCN(Cc2ccc3c(c2)OCO3)CC1 [CBK074780]
viability at 28.5 h, 10 µM: 93.9%

COc1ccc([C@@]23CC[C@@H](NC(=O)Nc4ccc(Cl)cc4[N+](=O)[O-])C[C@@H]2N(C)CC3)cc1OC [CBK036474T]
viability at 28.5 h, 10 µM: 84.1%

CCOc1cc(NC2CCN(C(=O)CC3CCCCC3)CC2)ncn1 [CBK305506]
viability at 28.5 h, 10 µM: 104%

CC12CN(S(=O)(=O)c3ccccc3)CC(c3ccccc3)(CN(S(=O)(=O)c3ccccc3)C1)C2=O [CBK268101]
viability at 28.5 h, 10 µM: 97%

N#Cc1cccc(CN2C[C@H](O)C[C@H]2c2nc(Cc3ccccc3)no2)c1 [CBK288842]
viability at 28.5 h, 10 µM: 87.5%

O=[N+]([O-])c1ccc(CN2CCN(c3nccnc3OCc3cccnc3)CC2)cc1 [CBK083135T]
viability at 28.5 h, 10 µM: 106%

Cc1c(C(C)NC(=O)Nc2ccc(F)cc2F)cnn1C (stereo not shown) [CBK266986]
viability at 28.5 h, 10 µM: 95.1%

O=C(c1sc2ccccc2c1C1CCN(Cc2ccccc2F)C1)N1CCOCC1 (stereo not shown) [CBK286260]
viability at 28.5 h, 10 µM: 103%

Sc1nnc(COc2ccccc2)n1/N=C/c1ccc(-c2ccccc2)cc1 [CBK265269]
viability at 28.5 h, 10 µM: 117%

Cc1nn(Cc2c(F)cccc2Cl)c(C)c1NC(=O)c1cnn2c(C(F)F)cc(-c3ccccc3)nc12 [CBK267634]
viability at 28.5 h, 10 µM: 95.3%

N#Cc1c(O)nc(SCC(=O)Nc2ccc(Oc3ccccc3)cc2)nc1-c1ccccc1 [CBK266607]
viability at 28.5 h, 10 µM: 118%

CC(C)S(=O)(=O)n1ccn(-c2ccc(Oc3ccccc3)cc2)c1=O [CBK106644]
viability at 28.5 h, 10 µM: 86.3%

COc1cc2[nH]c(=S)n3nc(-c4ccncc4)nc3c2cc1OC [CBK288559]
viability at 28.5 h, 10 µM: 104%

COc1cc(CC(=O)N2CCc3c(sc4ncnc(N)c34)C2)ccc1C [CBK306013]
viability at 28.5 h, 10 µM: 103%

O=S(=O)(NCCCN1CCOCC1)c1cc(C(F)(F)F)cc(C(F)(F)F)c1 [CBK005796]
viability at 28.5 h, 10 µM: 91%

C[C@H](NC(=O)C1CCN(C(=O)OC(C)(C)C)CC1)C(=O)O [CBK286730]
viability at 28.5 h, 10 µM: 78.9%

COC(=O)NCCc1c[nH]c2ccc(OC)cc12 [CBK084597]
viability at 28.5 h, 10 µM: 98%

N#Cc1ccc(C(=O)N2CCC3(CC2)NC(=O)c2cc(-c4ccoc4)ccc2O3)cc1 [CBK115852]
viability at 28.5 h, 10 µM: 88.9%

NNC(=O)/C(=C\c1cccc([N+](=O)[O-])c1)NC(=O)c1ccc(Br)o1 [CBK262573]
viability at 28.5 h, 10 µM: 107%

Cn1ncc2c(C(=O)O)cc(-c3ccccc3)nc21 [CBK288024]
viability at 28.5 h, 10 µM: 88.9%

O=C(Cn1c(C(F)(F)F)nc2ccccc21)NCCN1CCOCC1 [CBK267339]
viability at 28.5 h, 10 µM: 100%

O=C(Nc1ccc2c(O)cc(S(=O)(=O)O)cc2c1)Nc1ccc2c(O)cc(S(=O)(=O)O)cc2c1 [CBK278157N]
viability at 28.5 h, 10 µM: 91.1%

COc1ccc(-c2ncc(OCc3cccs3)nc2N)c(OC)c1 [CBK145088]
viability at 28.5 h, 10 µM: 84%

OCC1CCN(Cc2cnn(C3CCCCC3)c2)C1 (stereo not shown) [CBK283086]
viability at 28.5 h, 10 µM: 88.4%

COc1cc(CN2CCC(N3CCCCCC3)CC2)ccc1OCc1ccccc1 [CBK264709G]
viability at 28.5 h, 10 µM: 90.6%

O=C1CC(C(=O)O)CN(c2cccs2)C1 (stereo not shown) [CBK021796]
viability at 28.5 h, 10 µM: 92.8%

COc1cccc(-c2ccc(NS(=O)(=O)c3ccc4c(c3)CCC(=O)N4)cc2)c1 [CBK286373]
viability at 28.5 h, 10 µM: 87.1%
